Data set [1] deals with T1, α-glucosidase (Saccharomyces cerevisiae, UniProt P53341).
T1 construct: purchased Sigma-Aldrich
Briefly: α-glucosidase inhibition kinetics (enzyme kinetics and Lineweaver-Burk substrate kinetics). The data set is classed as biochemical. Particulars: for inhibition type (substrate kinetics): Lineweaver-Burk plots; for Ki / Kis / Vmax: inhibition kinetics constant; for reversibility of inhibition (enzyme kinetics): plots of remaining enzyme activity versus enzyme concentration. The text has this:
Compounds 9, 11, 13, 18, and 19 with different α-glucosidase inhibitory activity were selected as representative compounds to reveal the inhibition mechanism of indolo[1,2-b]isoquinoline derivatives (1–21) on α-glucosidase by the implementation of an inhibition kinetics study. […] For substrate kinetics (Figure 5b,d,f,h,j), the Lineweaver-Burk plots of remaining enzyme activity versus […] treated with compounds 9, 11, 13, 18, and 19 intersected at one point in the second quadrant, respectively. The inhibition kinetics study was an effective method by which to understand the inhibition mechanism of the inhibitor against the target protein. In a substrate kinetics study, different inhibition mechanisms of inhibitors manifested as different intersection positions of Lineweaver-Burk plots. […] Moreover, compounds 9, 11, 13, 18, and 19 bind with both free enzyme and enzyme-substrate complexes to inhibit α-glucosidase. The inhibition kinetics constants of compounds 9, 11, 13, 18, and 19 were obtained and are listed in Table 2, including Ki, Kis, Km, and Vmax values, which might be helpful to understand the inhibition mechanism.
(§1) α-Glucosidase from Saccharomyces cerevisiae (EC 3.2.1.20) was purchased from Sigma-Aldrich. p-Nitrophenyl-α-D-[…] (PNPG) was obtained from Abcam. Other reagents were commercially available.
The kinetics of enzyme inhibition for compounds 9, 11, 13, 18, and 19 were obtained by plotting the enzymatic reaction rate versus enzyme concentration with or without compounds 9, 11, 13, 18, and 19, and the kinetics of substrate inhibition were measured using Lineweaver Burk plots of the enzymatic reaction rate versus substrate concentration with or without compounds 9, 11, 13, 18, and 19 [37, 38, 39, 40].

Another data set concerns hepatocytes LO2 cells. Briefly: In vitro cytotoxicity, MTT method. The format is cell-based. Particulars: 24 h, up to a concentration of 32 μM. How it is done:
The in vitro cytotoxicity of compounds 9, 11, 13, 18, and 19 against hepatocytes LO2 cells was detected using the MTT method.
The in vitro cytotoxicity of compound 11 against hepatocytes LO2 cells was assayed using the MTT method. LO2 cells were cultured in DMEM containing 10% FBS, 100 IU/mL penicillin, and 100 IU/mL streptomycin at 37 °C under 5% CO2. An amount of 100 μL of LO2 cells was seeded into a 96-well plate (5000 per well) for 24 h, and was then treated with compounds 9, 11, 13, 18, and 19 for 24 h, respectively. Then, MTT solution was added into each well and incubated for 4 h. An amount of […] of DMSO was used to dissolve the obtained crystallization. Then, this absorbance was determined at 490 nm. Each sample was performed in triplicate.

Data set [2] has as its target T1, α-glucosidase. Briefly: 3D fluorescence spectra of α-glucosidase with compounds. Particulars: α-glucosidase 5 μM. The data set is classed as binding.
Text: The 3D fluorescence spectra of α-glucosidase with compounds 9, 11, 13, 18, and 19 was investigated to analyze the effect of compounds on the structure of α-glucosidase, respectively. Two important characteristic peaks appeared in the 3D fluorescence spectra of α-glucosidase (Figure 6a,c,e,g,i), including Peak 1 ([…]), corresponding to the main chain structure of the polypeptide, and Peak 2 ([…]), corresponding to tyrosine and tryptophan residues. […] (Figure 6b,d,f,h,j). Previously, 3D fluorescence spectra have been used to determine protein conformation changes.
as §1
Compounds 9, 11, 13, 18, and 19 were added to α-glucosidase (5 μM) in 100 μL of PBS and incubated for 5 min, then the 3D fluorescence spectra of the mixture were recorded [32]^. The excitation and emission wavelengths were 200–500 nm and the slit width was 2.5 nm. All data were imported into Matlab for processing.

Data set [3] concerns the target T1, α-glucosidase. Briefly: CD spectra, secondary structure contents of α-glucosidase. The note with it: for effect on CD band intensity of α-glucosidase: 190~280 nm. The data set is classed as binding.
Text: CD spectra were also monitored to study the effect of compounds 9, 11, 13, 18, and 19 on the conformational changes of α-glucosidase. As shown in Figure 7a–e, α-glucosidase presented two negative CD bands in the region of 190~280 nm, which was owed to the electronic transitions of n→π* of α-helical bonds. […] While treatment of compounds 9, 13, 18, and 19 led to an increase of α-helix and a reduction of β-sheet, β-turn, and random coils, respectively (Table 3). CD spectra have been an important method by which to study protein structural changes and secondary structural content. Previous research has shown that the interaction of an inhibitor with α-glucosidase caused the partial folding and loosening of the α-glucosidase structure.
as §1
Compounds 9, 11, 13, 18, and 19 with different concentrations were added into α-glucosidase solution (31 μM) and incubated for 5 min, respectively, then the CD spectra of the mixture were recorded. CDNN was used to analyze the ratio of protein secondary conformations.

Data set [4] deals with T2, α-glucosidase from Saccharomyces cerevisiae (Saccharomyces cerevisiae, UniProt P53341).
T2 construct: purchased Sigma-Aldrich
T2 sequence (P53341 whole entry): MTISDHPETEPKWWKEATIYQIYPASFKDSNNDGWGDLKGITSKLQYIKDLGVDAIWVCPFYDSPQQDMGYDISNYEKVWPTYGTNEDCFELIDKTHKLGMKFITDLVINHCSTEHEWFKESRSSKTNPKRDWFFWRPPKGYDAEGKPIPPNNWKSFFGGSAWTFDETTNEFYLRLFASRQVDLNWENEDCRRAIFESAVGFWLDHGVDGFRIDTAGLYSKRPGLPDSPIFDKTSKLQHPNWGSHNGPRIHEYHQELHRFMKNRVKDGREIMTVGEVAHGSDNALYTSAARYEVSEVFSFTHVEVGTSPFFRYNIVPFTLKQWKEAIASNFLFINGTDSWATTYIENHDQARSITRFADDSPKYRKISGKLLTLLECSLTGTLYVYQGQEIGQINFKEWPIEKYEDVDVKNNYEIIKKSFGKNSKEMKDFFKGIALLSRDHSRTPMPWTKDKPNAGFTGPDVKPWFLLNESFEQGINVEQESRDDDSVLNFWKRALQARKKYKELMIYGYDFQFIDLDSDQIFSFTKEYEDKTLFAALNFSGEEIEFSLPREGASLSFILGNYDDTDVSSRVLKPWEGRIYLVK
Put plainly: biochemical. The data set is classed as biochemical. The note with it: α-glucosidase 0.1 U/mL, PNPG 0.25 mM, pH 6.8, 37 °C; read-out: α-Glucosidase inhibitory activity IC50. As to the method: as §1
After the addition of PNPG (0.25 mM), the change in absorbance was measured at 405 nm. […] All experiments were performed four times.

[5] abbreviates: molar ratio [α-Glu]:[Comp.] 1:1.
Setting [6] is: molar ratio [α-Glu]:[Comp.] 1:2.
[7] abbreviates: molar ratio [α-Glu]:[Comp.] 1:3.

Structures are written as SMILES.

T1 sequence (P53341 whole entry): as above

With `O=C1c2ccccc2-n2c1c(-c1ccccc1)c1ccc(F)cc1c2=O` [Compound 18], on α-glucosidase [1], the “inhibition type (substrate kinetics)” value is on record as “mixed-type inhibition”, the Ki is 4.62 µM, the Kis came to 12.34 µM and the Vmax came to 0.08 µM/min/mg. Also, the “reversibility of inhibition (enzyme kinetics)” value on α-glucosidase [1] is given as “reversible”. Besides, the “effect on cell viability” value with hepatocytes LO2 cells is recorded as “no significant effect on cell viability”. Moreover, the “effect on fluorescence intensity of Peak 1 and Peak 2 of α-glucosidase” value at α-glucosidase [2] is “decrease the fluorescence intensity”. In addition, the “effect on CD band intensity of α-glucosidase” value on α-glucosidase [3] was “decrease in CD band intensity”. On α-glucosidase [3] (setting [5]), the “Rndm Coil” value is on record as 35.00%, the α-Helix is on record as 11.10%, the β-Sheet was found to be 35.30% and the β-Turn was 19.40%. Further, at α-glucosidase [3] (setting [6]), the “Rndm Coil” value was found to be 35.00%, the α-Helix is on record as 11.20%, the β-Sheet was 35.00% and the β-Turn turned out to be 19.30%. Moreover, on α-glucosidase [3] (setting [7]), the “Rndm Coil” value is given as 34.70%, the α-Helix was 12.80%, the β-Sheet worked out at 35.00% and the β-Turn is recorded as 19.30%. Further, the half-maximal inhibitory concentration (IC50) in data set [4] came to 7.97 ± 0.31 µM.

On to `Cc1ccc2c(c1)-n1c(c(-c3ccccc3)c3cc(C)ccc3c1=O)C2=O` [Compound 19], for which, on α-glucosidase [1], the “inhibition type (substrate kinetics)” value was “mixed-type inhibition”, the Ki came out at 8.38 µM, the Kis is 42.30 µM and the Vmax is 0.05 µM/min/mg. Also, the “reversibility of inhibition (enzyme kinetics)” value at α-glucosidase [1] is on record as “reversible”. In the data set on hepatocytes LO2 cells, the “effect on cell viability” value is given as “no significant effect on cell viability”. Further, the “effect on fluorescence intensity of Peak 1 and Peak 2 of α-glucosidase” value at α-glucosidase [2] is recorded as “decrease the fluorescence intensity”. Also, the “effect on CD band intensity of α-glucosidase” value at α-glucosidase [3] is reported as “decrease in CD band intensity”. At α-glucosidase [3] (setting [5]), the “Rndm Coil” value was 34.60%, the α-Helix worked out at 12.90%, the β-Sheet is 31.80% and the β-Turn is recorded as 19.40%. In addition, at α-glucosidase [3] (setting [6]), the “Rndm Coil” value is on record as 34.70%, the α-Helix is 11.50%, the β-Sheet is recorded as 34.20% and the β-Turn stood at 19.30%. Besides, on α-glucosidase [3] (setting [7]), the “Rndm Coil” value is on record as 34.90%, the α-Helix was found to be 12.80%, the β-Sheet is given as 34.40% and the β-Turn is recorded as 19.30%. Also, in data set [4], the IC50 amounted to 41.2 ± 0.76 µM.

A word on the Ki: it is a dissociation constant, usually derived from enzyme kinetics or from competition with a known ligand. A higher Ki goes with a looser hold on the target. The Vmax is the rate approached at saturating substrate. A word on the IC50: it is the midpoint of a concentration-inhibition curve.

For the origin of these results see PMC10343752, “Anti-α-Glucosidase, SAR Analysis, and Mechanism Investigation of Indolo[1,2-b]isoquinoline Derivatives” (Molecules, 2023).
